Source: paper PMC4055595, “Pharmacokinetic Compatibility of Ginsenosides and Schisandra Lignans in Shengmai-san: From the Perspective of P-Glycoprotein” (PLoS ONE, 2014)
Read-outs that look alike come from different tables or passages of the source.

What was measured:
[1] = target: T1, human MDR1-encoded P-gp (L-MDR1 cells) (Homo sapiens, UniProt P08183); assay: Transport of digoxin and ginsenosides across L-MDR1 cell monolayers (efflux ratio); format: in vitro ADME; settings: for Effect of verapamil on efflux ratio / Papp / Effect of SLE on efflux ratio / transport: L-MDR1 cells; for Effect of verapamil on efflux ratio / Papp: 10 µM verapamil; for Effect of SLE on efflux ratio / transport: SLE 2.0 and 10.0 µg/mL; for P-gp substrate classification: summary of transport/uptake in LLC-PK1, L-MDR1 and Caco-2 cells with verapamil
Procedure: (§1) LLC-PK1 cells, a cell line lacking P-gp, and the derived cell line L-MDR1, which over-express human MDR1-encoded P-gp, were grown in minimum essential medium with supplements at 37°C, 5% CO2, and 95% humidity. LLC-PK1 and L-MDR1 cells were seeded at a density of 12×10^6 cells per 150-cm^2 flask and grown for 7 days in medium 199 supplemented with 2 mM glutamine, 10% fetal bovine serum, 10 mg/500 mL of streptomycin, and 10,000 IU/500 mL of penicillin. To ensure a constant expression level of transport protein, L-MDR1 cells were grown in the presence of 640 nM vincristine. Cells were grown as monolayer on polycarbonate membrane filters (Transwell; Costar Corporation, Cambridge, MA) as outlined previously. Transepithelial resistance was measured in each well using a Millicell ERS ohmmeter (Millipore, Bedford, MA); wells registering a resistance of 200 ohms or greater, after correcting for the resistance obtained in control blank wells, were used in the transport experiments.
(§2) The LLC-PK1 and L-MDR1 cells were washed with warm Hank's balanced salt solution HBSS (pH 7.4) twice before transport experiment. HBSS containing verapamil (10 µM), SLE (2.0 and 10.0 µg/mL) or blank HBSS (control) was then loaded into both apical and basolateral chambers. After incubation at 37°C for 1.5 h, GE (100 µg/mL) was added to either the apical or basolateral side to evaluate the transport in absorptive and secretive directions, respectively. The cell monolayer was then incubated for another 2 h. Finally, the concentrations of ginsenosides were determined by LC/MS. All experiments were conducted in triplicate.
(§3) For the transport assay, the apparent permeability (P app, cm/s) in each direction (A→B and B→A) was calculated as follows, where A is the surface area of the membrane inserts (0.0804 cm^2), C 0 is the initial concentration of the compound applied in the donor compartment (2 µM), and △Q is the amount (micromoles) of compound transported over time △t (5 h = 18,000 s): [drawing 1]
(§4) The efflux ratio (ER) was a dimensionless number calculated as the ratio of the apparent permeability in the B→A direction divided by the apparent permeability in the A→B direction. [drawing 2]

[2] = tested on: LLC-PK1 cells (lacking P-gp); assay: Transport of digoxin and ginsenosides across LLC-PK1 cell monolayers; format: in vitro ADME; settings: for Effect of verapamil on transport (efflux ratio): 10 µM verapamil; for Effect of SLE on transport (AP→BL, BL→AP): SLE 2.0 and 10.0 µg/mL
Procedure: as §1, §2, §3, §4

[3] = target: T1, human MDR1-encoded P-gp (L-MDR1 cells); assay: Uptake (intracellular concentration) of digoxin and ginsenosides in L-MDR1 cells; format: in vitro ADME
Procedure: as §1
(§5) LLC-PK1 and L-MDR1 cells were incubated with SLE (2.0 and 10.0 µg/mL) or verapamil (10 µM) for 1.0 h, and then were washed to discard SLE or verapamil before adding 100 µg/mL of GE. The accumulation of GE lasted for 2 h, and the intracellular concentrations of ginsenosides were measured by LC/MS. All experiments were conducted in triplicate.

[4] = tested on: LLC-PK1 cells (lacking P-gp); assay: Uptake (intracellular accumulation) of digoxin and ginsenosides in LLC-PK1 cells; format: in vitro ADME; settings: for Effect of verapamil on intracellular accumulation: 10 µM verapamil; for Effect of SLE on intracellular accumulation: SLE 2.0 and 10.0 µg/mL
Procedure: as §1, §5

Caco-2 cell monolayer = assay: Transport of digoxin and ginsenosides across Caco-2 cell monolayer (efflux ratio); format: in vitro ADME, human
Procedure: (§6) Caco-2 cells were purchased from American Type Culture Collection (Manassas, VA), and were routinely cultured in Dulbecco's modified Eagle's medium supplemented with 10% fetal bovine serum, 1% nonessential amino acids, 1 mM sodium pyruvate, and 100 U/mL penicillin and streptomycin (Invitrogen, Carlsbad, CA). The cells were grown in an atmosphere of 5% CO2 at 37°C, and cell medium was changed every other day. Cells were seeded at a density of 4×10^4 cells per well in 24-well microporous polycarbonate insert filter plates (0.4-µm pore size) (Corning Costar plates; Corning Life Sciences, Lowell, MA) and grown for 15 days in Caco-2 growth medium. The medium was replaced every 3 to 4 days. Before running the assay, the culture medium was replaced by HBSS buffer supplemented with 10 mM Hepes and 20 mM glucose.
(§7) Caco-2 cells with a density of 1.2×10^5 cells/insert were seeded on a permeable polycarbonate insert (Millicell cell culture inserts, 0.4 µm pore size, 12 mm diameter; Millipore Corporation) in 24-well tissue culture plates and were used for the experiment 18 to 21 days after seeding. [^14C]Mannitol permeability and transepithelial electrical resistance measurements (Millicell-ERS epithelial volt-ohm meter; Millipore Corporation) were used to evaluate the integrity of Caco-2 cell monolayer. The monolayer used in transport studies had transepithelial electrical resistance values exceeding 600 Ω·cm^2, and the leakage of mannitol was less than 0.3% of the dose/h. Before transport initiation studies, the cell monolayer was first washed with warm HBSS (pH 7.4) twice. HBSS containing SLE (2.0 and 10.0 µg/mL) or 1% ethanol (control) was then loaded into both apical and basolateral chambers. After incubation at 37°C for 1.5 h, 100 µg/mL of GE was added to either the apical or basolateral side to evaluate the transport in absorptive and secretory directions, and the cell monolayer was incubated for another 2 h. 10 µM verapamil was used as a positive control inhibitor. At the designated time point, samples were taken from the receiving chamber for analysis. Ginsenosides were determined by LC-MS. All experiments were conducted in triplicate.
as §3, §4

Caco-2 cells = assay: Uptake of digoxin and ginsenosides in Caco-2 cells; format: in vitro ADME, human
Procedure: as §6
as §5, with “Caco-2” for “LLC-PK1 and L-MDR1”, “h. Then the cells” for “h, and then”, “washed with Hank's” for “washed”, “the addition” for “adding 100 µg/mL”, “GE (100 µg/mL).” for “GE.”, “ginsenosides” for “GE”

P-gp (MDR1) = P-gp (MDR1) (Homo sapiens, UniProt P08183); assay: Transport of digoxin and ginsenosides across L-MDR1 cell monolayers (efflux ratio); format: in vitro ADME; settings: human, read-out: Efflux ratio (Papp BL-AP / Papp AP-BL)
Procedure: as §1, §2, §3, §4

[5] = Transport of digoxin and ginsenosides across Caco-2 cell monolayer (efflux ratio); format: in vitro ADME, human; settings: human, Caco-2, pH 7.4
Procedure: as §6, §7, §3, §4

[6] = LLC-PK1, pH 7.4, L-MDR1 cells, control (absence of verapamil), GE 100 µg/mL, 2 h
[7] = LLC-PK1, pH 7.4, L-MDR1 cells, presence of 10 µM verapamil
[8] = LLC-PK1, pH 7.4, with verapamil 10 µM, L-MDR1 cells, presence of 10 µM verapamil

T1 sequence (P08183 whole entry): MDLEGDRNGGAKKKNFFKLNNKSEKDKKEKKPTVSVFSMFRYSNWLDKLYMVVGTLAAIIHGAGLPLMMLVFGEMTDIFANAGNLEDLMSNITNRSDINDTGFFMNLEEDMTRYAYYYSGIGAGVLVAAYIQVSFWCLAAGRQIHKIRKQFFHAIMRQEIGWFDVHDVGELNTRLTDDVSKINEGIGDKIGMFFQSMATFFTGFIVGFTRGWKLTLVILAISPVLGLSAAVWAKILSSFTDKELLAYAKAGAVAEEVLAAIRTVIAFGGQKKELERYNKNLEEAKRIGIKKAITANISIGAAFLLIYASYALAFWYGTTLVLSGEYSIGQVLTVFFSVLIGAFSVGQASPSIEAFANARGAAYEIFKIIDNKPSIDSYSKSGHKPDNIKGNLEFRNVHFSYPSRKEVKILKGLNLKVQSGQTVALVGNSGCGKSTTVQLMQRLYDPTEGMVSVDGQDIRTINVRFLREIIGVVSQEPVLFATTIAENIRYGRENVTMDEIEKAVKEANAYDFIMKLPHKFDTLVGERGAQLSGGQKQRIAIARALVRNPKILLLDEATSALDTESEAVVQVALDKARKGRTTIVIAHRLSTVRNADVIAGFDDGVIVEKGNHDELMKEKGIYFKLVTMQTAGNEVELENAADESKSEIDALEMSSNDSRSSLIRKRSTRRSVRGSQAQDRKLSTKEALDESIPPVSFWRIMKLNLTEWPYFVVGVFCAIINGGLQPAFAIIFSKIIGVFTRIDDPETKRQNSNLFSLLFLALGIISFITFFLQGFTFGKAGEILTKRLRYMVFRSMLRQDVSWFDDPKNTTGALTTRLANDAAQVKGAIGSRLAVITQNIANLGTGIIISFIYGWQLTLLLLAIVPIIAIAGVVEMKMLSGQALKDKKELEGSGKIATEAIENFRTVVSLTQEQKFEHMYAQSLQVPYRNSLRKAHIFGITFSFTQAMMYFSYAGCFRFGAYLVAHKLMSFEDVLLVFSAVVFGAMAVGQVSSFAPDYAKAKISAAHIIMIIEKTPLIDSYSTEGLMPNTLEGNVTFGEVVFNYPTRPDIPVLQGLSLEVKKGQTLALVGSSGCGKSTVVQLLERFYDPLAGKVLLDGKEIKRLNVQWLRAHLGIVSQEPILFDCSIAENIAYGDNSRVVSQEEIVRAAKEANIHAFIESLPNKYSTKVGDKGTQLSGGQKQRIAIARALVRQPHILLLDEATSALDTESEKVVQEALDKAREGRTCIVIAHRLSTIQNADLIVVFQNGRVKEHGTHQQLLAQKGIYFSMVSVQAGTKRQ
Sequence of P-gp (MDR1) (P08183 whole entry): as above

Row | Structure (SMILES) | Effect of verapamil on efflux ratio / Papp [1] | Effect of SLE on efflux ratio / transport [1] | P-gp substrate classification [1] | Effect of verapamil on transport (efflux ratio) [2] | Effect of SLE on transport (AP→BL, BL→AP) [2] | Increase of intracellular concentration by SLE ([3]; 2.0 µg/mL SLE) [fold] | Increase of intracellular concentration by SLE ([3]; 10.0 µg/mL SLE) [fold] | Effect of verapamil on intracellular accumulation [4] | Effect of SLE on intracellular accumulation [4] | Effect of verapamil on efflux ratio (Caco-2 cell monolayer; Caco-2 cells, 10 µM verapamil) | Effect of SLE on BL-AP transport / efflux ratio (Caco-2 cell monolayer; Caco-2 monolayer, SLE 2.0 and 10.0 µg/mL) | Effect of verapamil on uptake (Caco-2 cells; 10 µM verapamil) | Effect of SLE on intracellular concentration (Caco-2 cells; SLE 2.0 and 10.0 µg/mL, P<0.01) | efflux ratio at 2 h, 100 µg/mL (P-gp (MDR1); [6]) | efflux ratio at 2 h (P-gp (MDR1); [7]) | efflux ratio at 2 h, 100 µg/mL (P-gp (MDR1); [8]) | efflux ratio at 2 h, 100 µg/mL [5]
1 | CC(C)=CCC[C@](C)(O)[C@H]1CC[C@]2(C)[C@@H]1[C@H](O)C[C@@H]1[C@@]3(C)CC[C@H](O[C@@H]4O[C@H](CO)[C@@H](O)[C@H](O)[C@H]4O[C@@H]4O[C@H](CO)[C@@H](O)[C@H](O)[C@H]4O)C(C)(C)[C@@H]3CC[C@]12C [Rg3, ginsenoside Rg3] | significantly decrease of ER | significantly decreased | moderate P-gp substrates | No transport difference | No transport difference | 2.5 | 2.9 | no significant difference | no significant difference | decreased significantly | concentration dependently decrease | significantly enhanced | concentration dependently increase | – | – | – | –
2 | CC(C)=CCC[C@](C)(O)[C@H]1CC[C@]2(C)[C@@H]1[C@H](O)C[C@@H]1[C@@]3(C)CC[C@H](O)C(C)(C)[C@@H]3[C@@H](O[C@@H]3O[C@H](CO)[C@@H](O)[C@H](O)[C@H]3O)C[C@]12C [Rh1, ginsenoside Rh1] | almost not affected by verapamil | almost not be affected by SLE | almost could not be transported by P-gp | No transport difference | – | – | – | almost not affected by verapamil | – | – | – | – | – | < 2 | 1.6 | – | –
3 | CC(C)=CCC[C@](C)(O[C@@H]1O[C@H](CO)[C@@H](O)[C@H](O)[C@H]1O)[C@H]1CC[C@]2(C)[C@@H]1[C@H](O)C[C@@H]1[C@@]3(C)CC[C@H](O)C(C)(C)[C@@H]3[C@@H](O[C@@H]3O[C@H](CO)[C@@H](O)[C@H](O)[C@H]3O[C@@H]3O[C@@H](C)[C@H](O)[C@@H](O)[C@H]3O)C[C@]12C [Re, ginsenoside Re] | almost not affected by verapamil | almost not be affected by SLE | almost could not be transported by P-gp | No transport difference | – | – | – | almost not affected by verapamil | – | – | – | – | – | < 2 | – | 2.36 | –
4 | CC(C)=CCC[C@](C)(O[C@@H]1O[C@H](CO)[C@@H](O)[C@H](O)[C@H]1O)[C@H]1CC[C@]2(C)[C@@H]1[C@H](O)C[C@@H]1[C@@]3(C)CC[C@H](O)C(C)(C)[C@@H]3[C@@H](O[C@@H]3O[C@H](CO)[C@@H](O)[C@H](O)[C@H]3O)C[C@]12C [Rg1, ginsenoside Rg1] | almost not affected by verapamil | almost not be affected by SLE | almost could not be transported by P-gp | No transport difference | – | – | – | almost not affected by verapamil | – | – | – | – | – | < 2 | – | 1.16 | –
5 | CC(C)=CCC[C@](C)(O[C@@H]1O[C@H](CO)[C@@H](O)[C@H](O)[C@H]1O)[C@H]1CC[C@]2(C)[C@@H]1[C@H](O)C[C@@H]1[C@@]3(C)CC[C@H](O)C(C)(C)[C@@H]3[C@@H](O)C[C@]12C [F1, ginsenoside F1] | almost not affected by verapamil | almost not be affected by SLE | almost could not be transported by P-gp | No transport difference | – | – | – | almost not affected by verapamil | – | – | – | – | – | < 2 | – | 1.99 | –
6 | CC(C)=CCC[C@](C)(O)[C@H]1CC[C@]2(C)[C@@H]1[C@H](O)C[C@@H]1[C@@]3(C)CC[C@H](O)C(C)(C)[C@@H]3[C@@H](O[C@@H]3O[C@H](CO)[C@@H](O)[C@H](O)[C@H]3O[C@@H]3O[C@@H](C)[C@H](O)[C@@H](O)[C@H]3O)C[C@]12C [Rg2, ginsenoside Rg2] | significantly decrease of ER | significantly decreased | moderate P-gp substrates | No transport difference | No transport difference | 1.7 | 2.1 | no significant difference | no significant difference | – | – | – | – | > 3.5 | 1.52 | – | 4.26
